This is an account of results in the Kinase Knowledgebase extract (Sharma et al. 2016).

The test concerns the target PIK3CA (human) (UniProt P42336). Put plainly: Inhibition of PIK3CA Kinase Activity.

SMILES strings stand for the structures.

Chain of PIK3CA (human) (P42336 whole entry, looked up): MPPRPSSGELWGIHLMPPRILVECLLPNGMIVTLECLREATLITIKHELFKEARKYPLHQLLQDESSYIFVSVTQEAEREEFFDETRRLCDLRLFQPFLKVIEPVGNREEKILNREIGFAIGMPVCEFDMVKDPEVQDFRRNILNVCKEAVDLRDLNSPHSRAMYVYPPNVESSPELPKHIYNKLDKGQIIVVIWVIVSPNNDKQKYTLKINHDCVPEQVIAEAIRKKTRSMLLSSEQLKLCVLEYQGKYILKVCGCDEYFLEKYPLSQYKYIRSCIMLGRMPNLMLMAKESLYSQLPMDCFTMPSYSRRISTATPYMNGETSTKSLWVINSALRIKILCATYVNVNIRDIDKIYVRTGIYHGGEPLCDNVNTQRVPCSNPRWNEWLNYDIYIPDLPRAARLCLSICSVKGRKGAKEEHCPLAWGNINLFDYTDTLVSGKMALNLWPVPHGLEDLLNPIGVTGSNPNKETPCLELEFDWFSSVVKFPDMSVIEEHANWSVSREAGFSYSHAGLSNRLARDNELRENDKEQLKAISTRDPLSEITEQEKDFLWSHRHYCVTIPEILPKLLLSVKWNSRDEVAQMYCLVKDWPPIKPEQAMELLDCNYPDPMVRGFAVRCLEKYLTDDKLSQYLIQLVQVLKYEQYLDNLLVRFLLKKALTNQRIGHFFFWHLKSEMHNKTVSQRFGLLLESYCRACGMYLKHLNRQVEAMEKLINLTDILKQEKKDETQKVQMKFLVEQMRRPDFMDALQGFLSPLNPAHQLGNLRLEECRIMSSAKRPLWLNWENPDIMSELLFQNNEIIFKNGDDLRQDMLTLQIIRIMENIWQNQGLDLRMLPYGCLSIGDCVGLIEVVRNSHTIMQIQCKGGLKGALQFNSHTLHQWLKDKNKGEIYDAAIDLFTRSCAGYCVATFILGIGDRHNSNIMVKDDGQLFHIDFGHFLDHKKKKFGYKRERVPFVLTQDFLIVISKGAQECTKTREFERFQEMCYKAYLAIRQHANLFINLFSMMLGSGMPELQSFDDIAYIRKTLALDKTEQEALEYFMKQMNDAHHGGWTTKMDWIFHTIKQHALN

Usually IC50 stands for the midpoint of a concentration-inhibition curve. Read a low IC50 as greater potency in that assay. As for `CC(=O)Nc1nc2ccc(-c3cnc(NC(C)=O)c(C(F)(F)F)c3)cc2s1`, the concentration for half-maximal inhibition (IC50) was under 1000 nM.
Under `CC(=O)Nc1nc2ccc(-c3ccc(NC4CCOCC4)nc3)cc2s1` stands under 1000 nM; under `Nc1ncc(-c2ccc3nc(NC(=O)C4CCC(=O)N4)cn3c2)cc1C(F)(F)F` (stereo not given), under 1000 nM; under `Nc1ncc(-c2ccc3nc(NC(=O)[C@H]4CCC(=O)O4)cn3c2)cc1C(F)(F)F`, under 1000 nM.
Under `CC(=O)Nc1cn2cc(-c3cnc(N)c(O[C@@H](C)C(F)(F)F)n3)cc(F)c2n1` stands under 1000 nM; under `Nc1ncc(-c2ccc3nc(NC(=O)C4CCCC(=O)N4)cn3c2)cc1C(F)(F)F` (stereo not given), under 1000 nM; under `Nc1cc(C(=O)Nc2nc3ccc(-c4cnc(N)c(C(F)(F)F)c4)cc3s2)ccn1`, under 1000 nM.
Under `CC(=O)Nc1cn2cc(-c3cnc(N)c(OC(F)F)c3)ccc2n1` stands under 1000 nM; under `Nc1ncc(-c2ccc3nc(NC(=O)N4CCCC4c4ccco4)cn3c2)cc1C(F)(F)F` (stereo not given), under 1000 nM; under `N#CN=C(N)NCCCC(=O)Nc1cn2nc(-c3cnc(N)c(C(F)(F)F)c3)ccc2n1`, under 1000 nM.
For the molecule `CC(=O)Nc1nc2ccc(-c3ccc(NC4CCNCC4)nc3)cc2s1`, the half-maximal inhibitory concentration (IC50) was under 1000 nM.
Under `CC(=O)N1CCCC[C@@H]1C(=O)Nc1cn2cc(-c3cnc(N)c(C(F)(F)F)c3)ccc2n1` stands under 10000 nM; under `CC(=O)Nc1nc2ccc(-c3ccc(N)nc3)cn2c1Br`, under 10000 nM.
Under `Nc1cccc(C(=O)Nc2nc3ccc(-c4cnc(N)c(C(F)(F)F)c4)cc3s2)n1` stands under 10000 nM.
In turn, `Nc1ncc(-c2ccc3nc(NC(=O)[C@@H]4CCC(=O)O4)cn3c2)cc1C(F)(F)F` registered an IC50 of under 1000 nM.
In the case of `CC(=O)Nc1cn2c(-c3cnc(N)c(C(F)(F)F)c3)c(-c3cnc(N)c(C(F)(F)F)c3)ccc2n1`, the IC50 was at least 25000 nM.
With `Nc1ncc(-c2ccc3nc(NC(=O)c4cccc(-c5nn[nH]n5)c4)cn3c2)cc1C(F)(F)F`, the IC50 was under 1000 nM.
Under `CC(=O)Nc1cn2cc(-c3cnc(N)c(Oc4cccc(F)c4)n3)cc(F)c2n1` stands under 1000 nM; under `CC(=O)Nc1cn2cc(-c3cnc(N)c(S(=O)(=O)N4CCC(Oc5ccc(F)cc5)CC4)c3)ccc2n1`, under 1000 nM; under `CC(=O)Nc1cn2cc(-c3cnc(N)c(O[C@H](C)C(F)(F)F)n3)cc(F)c2n1`, under 1000 nM.
As to `CC(=O)Nc1cn2cc(-c3cnc(N)nc3N)ccc2n1`, the IC50 is under 10000 nM.
Under `Nc1ncc(-c2ccc3nc(NC(=O)C4CCC(=O)NC4)cn3c2)cc1C(F)(F)F` (stereo not given) stands under 1000 nM.
Under `CC(=O)Nc1cn2cc(-c3cnc(N)c(Oc4ccc(N5CCN(C(C)C)CC5)cc4)n3)ccc2n1` stands under 1000 nM; under `CC(=O)Nc1nc2ccc(-c3cnc(N)c(C(F)(F)F)c3)cn2c1C(C)=O`, under 10000 nM; under `Nc1ncc(-c2ccc3nc(NC(=O)c4ccccc4C(=O)O)cn3c2)cc1C(F)(F)F`, under 10000 nM.
Under `Nc1ccc(-c2ccc3nc(NC(=O)OCCN4CCCCC4)sc3c2)cn1` stands under 1000 nM; under `COc1ccccc1C1CCCN1C(=O)Nc1cn2cc(-c3cnc(N)c(C(F)(F)F)c3)ccc2n1` (stereo not given), under 1000 nM; under `Nc1ncc(-c2ccc3nc(NC(=O)[C@@H](O)CCC(=O)O)cn3c2)cc1C(F)(F)F`, under 1000 nM.
`CC(=O)Nc1cn2cc(-c3cnc(N)c(C(F)(F)F)c3)cc(C)c2n1` showed an IC50 of at least 25000 nM.
Under `CC(=O)Nc1cn2cc(-c3cnc(N)cc3C(F)(F)F)ccc2n1` stands under 10000 nM; under `CCN(CC)CCCc1c(NC(C)=O)nc2ccc(-c3cnc(N)c(C(F)(F)F)c3)cn12`, under 10000 nM; under `CC(=O)Nc1cn2nc(-c3cnc(N)c(-c4ccccc4Cl)c3)ccc2n1`, under 1000 nM.
Take `Nc1ncc(-c2ccc3nc(NC(=O)N4CCCC4c4nccs4)cn3c2)cc1C(F)(F)F` (stereo not given): the IC50 was under 1000 nM.
As to `COc1ccc(C2CCCN2C(=O)Nc2cn3cc(-c4cnc(N)c(C(F)(F)F)c4)ccc3n2)cc1OC` (stereo not given), the IC50 is under 1000 nM.
Under `Nc1ncc(-c2ccc3nc(NC(=O)N4CCCC4Cc4ccccn4)cn3c2)cc1C(F)(F)F` (stereo not given) stands under 1000 nM.
